Like-named read-outs stand apart in the source and are kept apart here.
Biological target: T1, ACE-2 (Homo sapiens, UniProt Q9BYF1)
T1 construct: a stop codon inserted after the serine immediately preceding the transmembrane domain; made in house; host or cells: CHO K1 cells (transient transfection, purified from conditioned medium)
Experiment: ACE-2 Competitive Substrate Assay (ACS Assay)
Format: biochemical

[1] = Ki class, compounds tested in 5% DMSO, 12 compound concentrations, Ki=Kiapp/(1+[S]/Km), read-out: Human ACE-2 Activity
[2] = Table 3, very good ACE-2 inhibiting compounds, species not given, read-out: ACE-2 Activity, Ki
[3] = Ki class per key, compounds tested in 5% DMSO, 12 compound concentrations, 25° C., Ki=Kiapp/(1+[S]/Km), read-out: Human ACE-2 Activity
[4] = Ki class, compounds tested in 5% DMSO, 12 concentrations, read-out: Human ACE-2 Activity

T1 sequence (Q9BYF1 18-740 limits assumed): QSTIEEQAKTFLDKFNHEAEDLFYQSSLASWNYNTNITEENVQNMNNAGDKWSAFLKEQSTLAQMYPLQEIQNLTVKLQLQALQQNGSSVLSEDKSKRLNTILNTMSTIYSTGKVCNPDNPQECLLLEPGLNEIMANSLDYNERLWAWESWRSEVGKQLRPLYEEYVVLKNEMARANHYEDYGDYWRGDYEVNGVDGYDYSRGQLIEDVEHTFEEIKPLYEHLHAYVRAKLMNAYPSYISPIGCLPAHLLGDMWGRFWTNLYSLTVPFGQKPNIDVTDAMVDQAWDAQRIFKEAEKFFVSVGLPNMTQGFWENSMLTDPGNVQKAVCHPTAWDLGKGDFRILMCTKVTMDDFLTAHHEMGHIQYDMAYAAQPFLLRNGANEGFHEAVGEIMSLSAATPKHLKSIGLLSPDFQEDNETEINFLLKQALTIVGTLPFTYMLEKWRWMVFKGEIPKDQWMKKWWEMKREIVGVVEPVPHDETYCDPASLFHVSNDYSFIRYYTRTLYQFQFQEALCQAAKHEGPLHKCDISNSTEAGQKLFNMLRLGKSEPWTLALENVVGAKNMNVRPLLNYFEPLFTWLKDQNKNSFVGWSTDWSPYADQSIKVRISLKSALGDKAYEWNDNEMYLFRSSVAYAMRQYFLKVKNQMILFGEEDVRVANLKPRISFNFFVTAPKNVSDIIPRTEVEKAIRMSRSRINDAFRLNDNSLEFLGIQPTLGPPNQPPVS

Compound	Ki [1] [nM]	further results
CC(C)CC(N[C@@H](Cc1cncn1Cc1ccc([N+](=O)[O-])cc1)C(=O)O)C(=O)O (single isomer, unassigned) [ID, 2-[1-Carboxy-2-[3-(4-nitro-benzyl)-3H-imidazol-4-yl]-ethylamino]-4-methyl-pentanoic acid]	> 500	
Cc1ccc2nc(NC(=O)C[C@H](N[C@@H](CC(C)C)C(=O)O)C(=O)O)sc2c1 [NW, 2-[1-Carboxy-2-(6-methyl-benzothiazol-2-ylcarbamoyl)-ethylamino]-4-methyl-pentanoic acid]	100 to 500	Ki [2]: < 50 nM
CC(C)CC(N[C@@H](Cc1cncn1Cc1cccc(Cl)c1)C(=O)O)C(=O)O (single isomer, unassigned) [HD, 2-{1-Carboxy-2-[3-(3-chloro-benzyl)-3H-imidazol-4-yl]-ethylamino)4-methyl-pentanoic acid]	> 500	
CC(C)C[C@@H](N[C@H](Cc1cncn1Cc1cc(Cl)cc(Cl)c1)C(=O)O)C(=O)O [MZ, (R,R)-2-{1-Carboxy-2-[3-(3,5-dichloro-benzyl)-3H-imidazol-4-yl]-ethylamino}-4-methyl-pentanoic acid]	100 to 500	
CC(C)C[C@H](NC(=O)[C@@H](S)Cc1ccccc1)C(=O)O [KM, 2-(2-Mercapto-3-phenyl-propionylamino)-4-methyl-pentanoic acid]	> 500	
CC(C)C[C@H](N[C@@H](Cn1ccn(CCc2cccc(F)c2)c1=O)C(=O)O)C(=O)O [NP, 2-(1-Carboxy-2-{3-[2-(3-fluoro-phenyl)-ethyl]-2-oxo2,3-dihydro-imidazol-1-yl]-ethylamino)-4-methyl-pentanoic acid]	100 to 500	
CC(C)C[C@H](N[C@@H](CN1C(=O)CN(Cc2cc(Cl)cc(Cl)c2)C1=O)C(=O)O)C(=O)O [PX, 2-[1-Carboxy-2-[3-(3,5-dichloro-benzyl)-2,5-dioxo-imidazolidin-1-yl]-ethylamino]-4-methyl-pentanoic acid]		Ki [3]: < 100 nM
CC(C)CC(N[C@@H](Cc1cncn1Cc1cccc(F)c1)C(=O)O)C(=O)O (single isomer, unassigned) [JR, 2-[1-Carboxy-2-[3-(3-fluoro-benzyl)-3H-imidazol-4-yl]-ethylamino]4-methyl-pentanoic acid]	100 to 500	
CC(C)CC(N[C@@H](Cc1cn(Cc2cccc(F)c2F)cn1)C(=O)O)C(=O)O (stereo partly shown) [IW, 2-[1-Carboxy-2-[1-(2,3-difluoro-benzyl)-1H-imidazol-4-yl]-ethylamino]4-methyl-pentanoic acid]	> 500	
CC(C)CC(N[C@@H](Cc1cncn1Cc1ccccc1-c1ccccc1)C(=O)O)C(=O)O (single isomer, unassigned) [IE]	> 500	
CC(C)C[C@H](N[C@@H](CNC(=O)c1cc2cc(Cl)ccc2[nH]1)C(=O)O)C(=O)O [ND, 2-{1-Carboxy-2-[(5-chloro-1H-indole-2-carbonyl)-amino]-ethylamino}-4-methyl-pentanoic acid]	> 500	
CC(C)C[C@H](N[C@@H](Cc1cccc(OCc2cc(F)cc(F)c2)c1)C(=O)O)C(=O)O [NA, 2-[1-Carboxy-2-[3-(3,5-difluoro-benzyloxy)-phenyl]-ethylamino]-4-methyl-pentanoic acid]	100 to 500	
CC(C)C[C@H](N[C@@H](Cc1ccc(-c2cc(Cl)cc(Cl)c2)cc1)C(=O)O)C(=O)O [NG, (S,S)-2-[1-Carboxy-2-(3′,5′-dichloro-biphenyl-4-yl)-ethylamino]-4-methyl-pentanoic acid]	< 100	Ki [2]: < 50 nM
CC(C)C[C@H](N[C@@H](Cn1ccn(CCc2ccc(F)cc2)c1=O)C(=O)O)C(=O)O [NK, 2-(1-Carboxy-2-[3-[2-(4-fluoro-phenyl)-ethyl]-2-oxo2,3-dihydro-imidazol-1-yl)-ethylamino]-4-methyl-pentanoic acid]	100 to 500	
CC(C)CC(N[C@@H](Cc1cncn1CCc1ccccc1)C(=O)O)C(=O)O (single isomer, unassigned) [JL, 2-[1-Carboxy-2-[3-phenethyl-3H-imidazol-4-yl)-ethylamino]-4-methyl-pentanoic acid]	> 500	
CC(C)C[C@H](N[C@@H](CC1COC(=O)N1Cc1cc(Cl)cc(Cl)c1)C(=O)O)C(=O)O (stereo in doubt) [NE, (S,S,S)-2-{1-Carboxy-2-[3-(3,5-dichloro-benzyl)-2-oxo-oxazolidin-4-yl]-ethylamino}-4-methyl-pentanoic acid]	< 100	Ki [2]: 50 to 100 nM
CC(C)CC(N[C@@H](Cc1cncn1Cc1ccccc1CS(=O)(=O)c1ccccc1)C(=O)O)C(=O)O (single isomer, unassigned) [IA, 2-[2-[3-(2-Benzenesulfonylmethyl-benzyl)-3H-imidazol-4-yl]-1-carboxy-ethylamino]-4-methyl-pentanoic acid]	> 500	
CC(C)C[C@H](N[C@@H](CNC(=O)c1ccc2ccccc2c1)C(=O)O)C(=O)O [MT, 2-(1-Carboxy-2-[(naphthalene-2-carbonyl)amino]-ethylamino)-4-methyl-pentanoic acid]	> 500	
COc1cccc(C(=O)NCC[C@H](N[C@@H](CC(C)C)C(=O)O)C(=O)O)c1 [KO, 2-[1-Carboxy-3-(3-methoxy-benzoylamino)-propylamino]-4-methyl-pentanoic acid]	> 500	

Compound	Ki [1] [nM]	further results
Cc1ccccc1Cn1cncc1C[C@H](NC(CC(C)C)C(=O)O)C(=O)O (single isomer, unassigned) [HW, 2-[1-Carboxy-2-[3-(2-methyl-benzyl)-3H-imidazol-4-yl]-ethylamino]4-methyl-pentanoic acid]	100 to 500	
Cc1ccc(-n2ccc(C[C@H](N[C@@H](CC(C)C)C(=O)O)C(=O)O)n2)cc1 [QQ, 2-[1-Carboxy-2-(1-p-tolyl-1H-pyrazol-3-yl)-ethylamino]-4-methyl-pentanoic acid]		Ki [3]: < 100 nM; Ki [2]: 50 to 100 nM
CC(C)C[C@H](N[C@@H](Cc1ccc(C(=O)Nc2ccccc2)cc1)C(=O)O)C(=O)O [QF, 2-[1-Carboxy-2-(4-phenylcarbamoyl-phenyl)-ethylamino]-4-methyl-pentanoic acid]		Ki [3]: 100 to 500 nM
CC(C)C[C@H](N[C@@H](Cc1cccc(OCc2ccncc2)c1)C(=O)O)C(=O)O [NZ, S,S-2-{1-Carboxy-2-[3-(pyridin-4-ylmethoxy)-phenyl]-ethylamino}-4-methyl pentanoic acid]	> 500	
CC(C)C[C@H](N[C@@H](Cc1coc(-c2cc(Cl)cc(Cl)c2)n1)C(=O)O)C(=O)O [LN, (S,S)-2-{1-Carboxy-2-[2-(3,5-dichlorophenyl)-oxazol-4-yl]ethylamino}-4-methyl-pentanoic acid]	< 100	Ki [2]: 50 to 100 nM
CC(C)C[C@H](N[C@@H](Cc1ccn(-c2ccccc2)n1)C(=O)OC(C)(C)C)C(=O)O [OR]	> 500	
CC(C)CC(N[C@@H](CN(Cc1ccccc1)c1ccccc1)C(=O)O)C(=O)O (stereo partly shown) [GT, 2-[2-(Benzyl-phenyl-amino)-1-carboxy-ethylamino]-4-methyl-pentanoic acid]		Ki [4]: > 500 nM
NCCCC[C@@H](C(=O)O)N(CC(=O)O)CC(=O)O [K, 6-Amino-2-(bis-carboxymethyl-amino)-hexanoic acid]		Ki [4]: > 500 nM
CC(C)C[C@H](N[C@@H](CCC(=O)Nc1nc2ccc(F)cc2s1)C(=O)O)C(=O)O [OV, (S,S)-2-[1-Carboxy-3-(6-fluoro-benzothiazol-2-ylcarbamoyl)-propylamino]-4-methyl-pentanoic acid]	> 500	
CC(C)C[C@H](N[C@@H](Cc1cccc(OCc2cc(Cl)cc(Cl)c2)c1)C(=O)O)C(=O)O [NY, 2-[1-Carboxy-2-[3-(3,5-dichloro-benzyloxy)-phenyl]-ethylamino]-4-methyl-pentanoic acid]	< 100	Ki [2]: 50 to 100 nM
CC(C)C[C@H](N[C@@H](Cn1ccn(Cc2cc(F)ccc2F)c1=O)C(=O)O)C(=O)O [OW, 2-[1-Carboxy-2-[3-(2,5-difluoro-benzyl)-2-oxo-2,3-dihydro-imidazol-1-yl]-ethylamino]-4-methyl-pentanoic acid]	< 100	Ki [2]: 50 to 100 nM
CC(C)CC(N[C@@H](C[C@H]1COC(=O)N1Cc1cc(Cl)cc(Cl)c1)C(=O)O)C(=O)O (stereo in doubt) [NN, (R,S,S)-2-{1-Carboxy-2-[3-(3,5-dichloro-benzyl)-2-oxo-oxazolidin-4-yl]-ethylamino}-4-methyl-pentanoic acid]	100 to 500	
CC(C)C[C@H](N[C@@H](Cc1cccc(OCc2ccccc2Cl)c1)C(=O)O)C(=O)O [OP, S,S-2-{1-Carboxy-2-[3-(2-chloro-benzyloxy)-phenyl]-ethylamino}-4-methyl-pentanoic acid]	> 500	
CC(C)C[C@H](N[C@@H](CCNS(=O)(=O)c1ccc(-c2ccccc2)cc1)C(=O)O)C(=O)O [KF, 2-[3-(Biphenyl-4-sulfonylamino)-1-carboxy-propylamino]-4-methyl-pentanoic acid]	100 to 500	
CC(C)C[C@H](N[C@@H](CC(=O)Nc1nc2c(Cl)cccc2s1)C(=O)O)C(=O)O [MD, (S,S)-2-[1-Carboxy-2-(4-chloro-benzothiazol-2-ylcarbamoyl)-ethylamino]-4-methyl-pentanoic acid]	< 100	Ki [2]: < 50 nM
CC(C)CC(N[C@@H](Cc1cncn1Cc1ccc(Cl)c(Cl)c1)C(=O)O)C(=O)O (single isomer, unassigned) [GX]	> 500	
C=CCOc1cccc(C[C@H](N[C@@H](CC(C)C)C(=O)O)C(=O)O)c1 [NB, S,S-2-[2-(3-Allyloxy-phenyl)-1-carboxy-ethylamino]-4-methyl pentanoic acid]	100 to 500	
CC(C)C[C@H](N[C@@H](CN1C(=O)CN(Cc2cc(F)cc(F)c2)C1=O)C(=O)O)C(=O)O [PW, 2-[1-Carboxy-2-[3-(3,5-difluoro-benzyl)-2,5-dioxo-imidazolidin-1-yl]-ethylamino]-4-methyl-pentanoic acid]		Ki [3]: < 100 nM
CC(C)C[C@H](N[C@@H](Cn1ccn(-c2cc(F)cc(F)c2)c1=O)C(=O)O)C(=O)O [MS, 2-{1-Carboxy-2-[3-(3,5-difluoro-phenyl)-2-oxo-2,3-dihydro-imidazol-1-yl]-ethylamino}-4-methyl-pentanoic acid]	100 to 500	
